Reference: PubChem BioAssay AID330 (DTP/NCI, 2004)
Several values for one entry are separate records, joined by “and”; a condition that tells them apart may be missing. Identical values can stand only once. Inconclusive results and toxic doses are left out.

System: P388 leukemia ip, CD2F1 mice, survival T/C
Assay: NCI In Vivo Anticancer Drug Screen. Data for tumor model P388 Leukemia (intraperitoneal) in CD2F1 (CDF1) mice
Conditions: endpoint: median survival time, higher = longer survival
Method in brief: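 Mice carrying the transplanted tumor received test compound or vehicle. Survival was recorded in each group, and the value is the treated-group measurement divided by that of the vehicle-treated control group.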

[1] = dose: 50.0 mg/kg/injection, schedule: Q01DX009 (ip), vehicle: saline with Tween-80
[2] = dose: 12.5 mg/kg/injection, schedule: Q01DX009 (ip), vehicle: other
[3] = dose: 50.0 mg/kg/injection, schedule: Q01DX009 (ip), vehicle: other
[4] = dose: 100.0 mg/kg/injection, schedule: Q01DX009 (ip), vehicle: other
[5] = dose: 50.0 mg/kg/injection, schedule: Q01DX005 (ip), vehicle: saline with Tween-80
[6] = dose: 100.0 mg/kg/injection, schedule: Q01DX005 (ip), vehicle: saline with Tween-80
[7] = dose: 200.0 mg/kg/injection, schedule: Q01DX005 (ip), vehicle: saline with Tween-80
[8] = dose: 50.0 mg/kg/injection, schedule: Q01DX009 (ip), vehicle: saline
[9] = dose: 100.0 mg/kg/injection, schedule: Q01DX009 (ip), vehicle: saline
[10] = dose: 200.0 mg/kg/injection, schedule: Q01DX009 (ip), vehicle: saline
[11] = dose: 12.5 mg/kg/injection, schedule: Q01DX005 (ip), vehicle: Klucel (hydroxypropylcellulose) (HPC)
[12] = dose: 50.0 mg/kg/injection, schedule: Q01DX005 (ip), vehicle: Klucel (hydroxypropylcellulose) (HPC)
[13] = dose: 100.0 mg/kg/injection, schedule: Q01DX005 (ip), vehicle: Klucel (hydroxypropylcellulose) (HPC)
[14] = dose: 200.0 mg/kg/injection, schedule: Q01DX005 (ip), vehicle: Klucel (hydroxypropylcellulose) (HPC)
[15] = dose: 60.0 mg/kg/injection, schedule: Q01DX005 (ip), vehicle: saline with Tween-80
[16] = dose: 120.0 mg/kg/injection, schedule: Q01DX005 (ip), vehicle: saline with Tween-80
[17] = dose: 50.0 mg/kg/injection, schedule: Q01DX009 (ip), vehicle: Klucel (hydroxypropylcellulose) (HPC)
[18] = dose: 100.0 mg/kg/injection, schedule: Q01DX009 (ip), vehicle: Klucel (hydroxypropylcellulose) (HPC)
[19] = dose: 25.0 mg/kg/injection, schedule: Q01DX009 (ip), vehicle: other
[20] = dose: 200.0 mg/kg/injection, schedule: Q01DX009 (ip), vehicle: other
[21] = dose: 25.0 mg/kg/injection, schedule: Q04DX003 (ip), vehicle: saline with Tween-80
[22] = dose: 50.0 mg/kg/injection, schedule: Q04DX003 (ip), vehicle: saline with Tween-80
[23] = dose: 100.0 mg/kg/injection, schedule: Q04DX003 (ip), vehicle: saline with Tween-80
[24] = dose: 15.0 mg/kg/injection, schedule: Q01DX005 (ip), vehicle: saline with Tween-80

SMILES: COC(=O)c1nc2c(n(C)/c1=N/C(=O)Nc1ccccc1)CCCC2
- T/C (dose: 25.0 mg/kg/injection, schedule: Q01DX009 (ip), vehicle: saline with Tween-80): 120 % of control
- T/C [1]: 124 % of control
- T/C (dose: 100.0 mg/kg/injection, schedule: Q01DX009 (ip), vehicle: saline with Tween-80): 216 % of control
- T/C (dose: 200.0 mg/kg/injection, schedule: Q01DX009 (ip), vehicle: saline with Tween-80): 117 % of control

SMILES: CC(=O)N(CCCN1C(=O)c2ccccc2C1=O)c1ccc2c(c1)c(-c1ccccc1)nc1cc([N+](=O)[O-])ccc12
- T/C (dose: 3.13 mg/kg/injection, schedule: Q01DX009 (ip), vehicle: other): 98 % of control
- T/C (dose: 6.25 mg/kg/injection, schedule: Q01DX009 (ip), vehicle: other): 95 % of control
- T/C [2]: 87 % of control
- T/C [3]: 106 % of control
- T/C [4]: 96 % of control

SMILES: CCOC(=O)Cc1csc(=S)n1CC
- T/C [5]: 98 % of control
- T/C [6]: 98 % of control
- T/C [7]: 98 % of control

SMILES: [CH3][Ge]([O][Ge]([CH3])([c]1ccccc1)[c]1ccccc1)([c]1ccccc1)[c]1ccccc1
- T/C [8]: 102 % of control
- T/C [9]: 93 % of control
- T/C [10]: 92 % of control

SMILES: CC1(C)OP(=O)(O)C=C1Br
- T/C [8]: 103 % of control
- T/C [9]: 107 % of control
- T/C [10]: 93 % of control

SMILES: CSc1nc(N)c(C(=O)c2sc(SC)nc2N)s1
- T/C [11]: 100 % of control
- T/C (dose: 25.0 mg/kg/injection, schedule: Q01DX005 (ip), vehicle: Klucel (hydroxypropylcellulose) (HPC)): 92 % of control
- T/C [12]: 90 % of control and 97 % of control

SMILES: CC(/C=N\N=C(N)N)=N/N=C(N)N
- T/C (dose: 14.6 mg/kg/injection, schedule: Q01DX009 (ip), vehicle: saline): 100 % of control
- T/C (dose: 22.0 mg/kg/injection, schedule: Q01DX009 (ip), vehicle: saline): 120 % of control

SMILES: COC1C(C(=O)CS(=O)Cc2ccccc2)OC2OC(C)(C)OC21 (stereo unspecified)
- T/C (dose: 60.0 mg/kg/injection, schedule: Q01DX005 (ip), vehicle: saline): 104 % of control and 98 % of control
- T/C (dose: 120.0 mg/kg/injection, schedule: Q01DX005 (ip), vehicle: saline): 103 % of control
- T/C (dose: 240.0 mg/kg/injection, schedule: Q01DX005 (ip), vehicle: saline): 106 % of control and 108 % of control

SMILES: CCN1c2ccccc2S(=O)(=O)n2c(/C=C/c3ccc(OC)cc3)nnc21
- T/C (dose: 100.0 mg/kg/injection, schedule: Q01DX001 (ip), vehicle: saline with Tween-80): 90 % of control
- T/C (dose: 200.0 mg/kg/injection, schedule: Q01DX001 (ip), vehicle: saline with Tween-80): 88 % of control

SMILES: O=C(O)COc1cc2c(cc1Cc1ccc3c(c1)OCO3)OCO2
- T/C [12]: 99 % of control
- T/C [13]: 96 % of control
- T/C [14]: 97 % of control

SMILES: CN(CCc1ccccn1)c1ccc2c(c1)Cc1ccccc1-2
- T/C [12]: 98 % of control
- T/C [13]: 93 % of control

SMILES: O=c1n(-c2ccccc2)c(=O)n2n1C1C3C4C5C1C5C2C43 (stereo unspecified)
- T/C (dose: 6.25 mg/kg/injection, schedule: Q01DX009 (ip), vehicle: Klucel (hydroxypropylcellulose) (HPC)): 100 % of control
- T/C (dose: 12.5 mg/kg/injection, schedule: Q01DX009 (ip), vehicle: Klucel (hydroxypropylcellulose) (HPC)): 87 % of control

SMILES: Cc1cc(O)c(C=Nc2ccccc2C)c(=O)o1
- T/C [5]: 102 % of control
- T/C [6]: 103 % of control
- T/C [7]: 105 % of control

SMILES: Cn1c(N)c(C(=O)Nc2ccccc2)c(=O)n(C)c1=O
- T/C (dose: 100.0 mg/kg/injection, schedule: Q01DX001 (ip), vehicle: Klucel (hydroxypropylcellulose) (HPC)): 87 % of control
- T/C (dose: 200.0 mg/kg/injection, schedule: Q01DX001 (ip), vehicle: Klucel (hydroxypropylcellulose) (HPC)): 88 % of control

SMILES: O=C1NC(=O)C(=O)N1
- T/C (dose: 100.0 mg/kg/injection, schedule: Q04DX003 (ip), vehicle: saline): 100 % of control
- T/C (dose: 400.0 mg/kg/injection, schedule: Q04DX003 (ip), vehicle: saline): 100 % of control

SMILES: Nc1ccc2c(SCCCCSc3c4ccccc4nc4cc(N)ccc34)c3ccccc3nc2c1
- T/C [15]: 106 % of control
- T/C [16]: 100 % of control

SMILES: COC1=CC(=Nc2ccc(N(CCCl)CCCl)cc2)C=CC1=O
- T/C (dose: 25.0 mg/kg/injection, schedule: Q01DX009 (ip), vehicle: Klucel (hydroxypropylcellulose) (HPC)): 159 % of control
- T/C [17]: 151 % of control and 154 % of control
- T/C [18]: 159 % of control and 174 % of control

SMILES: CC(C)=CCCC(C)C1=C(O)C(=O)C(C)=CC1=O (stereo unspecified)
- T/C [11]: 108 % of control

SMILES: Nc1cc2c(cc1C(=O)N1CCc3ccccc31)OCO2
- T/C [19]: 106 % of control
- T/C [3]: 100 % of control
- T/C [4]: 97 % of control
- T/C [20]: 90 % of control

SMILES: CN1CCN(c2nc3cccnc3s2)CC1
- T/C [21]: 106 % of control
- T/C [22]: 101 % of control
- T/C [23]: 100 % of control

SMILES: O=C(O)C1=CC(c2ccccc2O)=NCCN1
- T/C [24]: 97 % of control and 98 % of control
- T/C (dose: 30.0 mg/kg/injection, schedule: Q01DX005 (ip), vehicle: saline with Tween-80): 102 % of control and 105 % of control
- T/C [15]: 114 % of control and 97 % of control
- T/C [16]: 103 % of control and 107 % of control

SMILES: CC1=C/C(=N\N2CCOCC2)C(C(O)(C(F)(F)F)C(F)(F)F)C(C)(C)C1 (stereo unspecified)
- T/C [17]: 96 % of control
- T/C [18]: 102 % of control
- T/C (dose: 200.0 mg/kg/injection, schedule: Q01DX009 (ip), vehicle: Klucel (hydroxypropylcellulose) (HPC)): 105 % of control

SMILES: [N-]=[N+]=CC(=O)OCC1NC(=O)C(COC(=O)C=[N+]=[N-])NC1=O (stereo unspecified)
- T/C [2]: 104 % of control and 102 % of control
- T/C [19]: 113 % of control and 101 % of control
- T/C [4]: 111 % of control and 120 % of control
- T/C [20]: 95 % of control and 111 % of control
- T/C (dose: 3.1 micrograms/kg/injection, schedule: Q01DX009 (ip), vehicle: water): 109 % of control and 104 % of control
- T/C (dose: 6.1 micrograms/kg/injection, schedule: Q01DX009 (ip), vehicle: water): 98 % of control and 101 % of control
- T/C (dose: 12.2 micrograms/kg/injection, schedule: Q01DX009 (ip), vehicle: water): 114 % of control and 100 % of control
- T/C (dose: 24.4 micrograms/kg/injection, schedule: Q01DX009 (ip), vehicle: water): 104 % of control and 107 % of control
- T/C (dose: 48.8 micrograms/kg/injection, schedule: Q01DX009 (ip), vehicle: water): 100 % of control
- T/C (dose: 97.5 micrograms/kg/injection, schedule: Q01DX009 (ip), vehicle: water): 92 % of control and 97 % of control
- T/C (dose: 195.0 micrograms/kg/injection, schedule: Q01DX009 (ip), vehicle: water): 100 % of control and 96 % of control
- T/C (dose: 390.0 micrograms/kg/injection, schedule: Q01DX009 (ip), vehicle: water): 109 % of control and 105 % of control
- T/C (dose: 780.0 micrograms/kg/injection, schedule: Q01DX009 (ip), vehicle: water): 100 % of control

SMILES: C/C=C/c1ccccc1N/N=C(\Cl)C(=O)OCC
- T/C (dose: 3.75 mg/kg/injection, schedule: Q01DX005 (ip), vehicle: saline with Tween-80): 107 % of control
- T/C (dose: 7.5 mg/kg/injection, schedule: Q01DX005 (ip), vehicle: saline with Tween-80): 99 % of control
- T/C (dose: 12.5 mg/kg/injection, schedule: Q01DX005 (ip), vehicle: saline with Tween-80): 99 % of control
- T/C [24]: 119 % of control
- T/C (dose: 25.0 mg/kg/injection, schedule: Q01DX005 (ip), vehicle: saline with Tween-80): 106 % of control
- T/C [5]: 118 % of control
- T/C [1]: 117 % of control

SMILES: CC(=O)NC(c1nc2cc(C)c(C)cc2[nH]1)c1nc2cc(C)c(C)cc2[nH]1
- T/C [12]: 101 % of control
- T/C [13]: 106 % of control
- T/C [14]: 110 % of control

SMILES: COc1ccc(/C=C2\CCCC3=C2N=C2SCC(=O)N2C3c2ccc(OC)cc2)cc1 (stereo unspecified)
- T/C [21]: 98 % of control
- T/C [22]: 92 % of control
- T/C [23]: 90 % of control

SMILES: CC1CC(C)CN(S(=O)(=O)c2cc(Cl)c(Oc3ccc([N+](=O)[O-])cc3Cl)c(Cl)c2)C1 (stereo unspecified)
- T/C (dose: 60.0 mg/kg/injection, schedule: Q01DX005 (ip), vehicle: Klucel (hydroxypropylcellulose) (HPC)): 101 % of control
- T/C (dose: 120.0 mg/kg/injection, schedule: Q01DX005 (ip), vehicle: Klucel (hydroxypropylcellulose) (HPC)): 100 % of control
- T/C (dose: 240.0 mg/kg/injection, schedule: Q01DX005 (ip), vehicle: Klucel (hydroxypropylcellulose) (HPC)): 110 % of control
